Assay results published in US8163740B2, “6-substituted benzoxazines” (Hoffmann-La Roche Inc., priority 2008, dated 2012).

Key:
[1] = molecular target: recombinant human 5-HT5A receptor (Homo sapiens, UniProt P47898); assay: [3H]LSD radioligand binding assay; details: [3H]LSD (approximately 1 nM); membranes from HEK-EBNA cells transiently expressing 5-HT5A; Ki by Cheng-Prussoff equation; read-out: Ki
Summary of the method: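 Membranes from HEK-EBNA cells transiently expressing the receptor, with ~1 nM [3H]LSD in 50 mM Tris, 1 mM EGTA, 10 mM MgCl2, 10 μM pargyline, pH 7.4, SPA bead format. Incubated 120 min RT; nonspecific binding defined with 2 μM methiothepin. 10 concentrations in duplicate; IC50 converted to Ki via Cheng-Prusoff.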

Chain of recombinant human 5-HT5A receptor (P47898 whole entry): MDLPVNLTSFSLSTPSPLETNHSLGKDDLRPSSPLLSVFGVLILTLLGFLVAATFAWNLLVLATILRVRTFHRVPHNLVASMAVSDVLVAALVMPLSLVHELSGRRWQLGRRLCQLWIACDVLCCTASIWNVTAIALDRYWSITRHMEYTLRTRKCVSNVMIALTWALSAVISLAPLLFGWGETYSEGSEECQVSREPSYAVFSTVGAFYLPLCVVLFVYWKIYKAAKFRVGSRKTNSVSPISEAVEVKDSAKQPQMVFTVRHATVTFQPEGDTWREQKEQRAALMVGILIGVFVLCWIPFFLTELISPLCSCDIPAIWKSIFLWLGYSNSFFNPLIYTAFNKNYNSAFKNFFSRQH

Compound | melting point [°C] | Ki [1] [nM]
Fc1ccc2c(c1)CCC2NC1=Nc2ccc(Nc3nnc(C(F)(F)F)o3)cc2CO1 (racemic) [Example 148, rac-N^2-(5-Fluoro-indan-1-yl)-N^6-(5-trifluoromethyl-[1,3,4]oxadiazol-2-yl)-4H-benzo[d][1,3]oxazine-2,6-diamine] | 142 | 14.1
Cc1nnc(Nc2ccc3c(c2)COC(NC2CCc4cc(F)ccc42)=N3)o1 (racemic) [Example 106, rac-N^2-(5-Fluoro-indan-1-yl)-N^6-(5-methyl-[1,3,4]oxadiazol-2-yl)-4H-benzo[d][1,3]oxazine-2,6-diamine] | 121 | 2.94
Cc1nc(-c2ccc3c(c2)COC(N[C@@H]2CCc4ccccc42)=N3)no1 [Example 133, (R)-Indan-1-yl-[6-(5-methyl-[1,2,4]oxadiazol-3-yl)-4H-benzo[d][1,3]oxazin-2-yl]-amine] | 138 | 75.7
COc1cccc2c1C(NC1=Nc3ccc(Nc4nnc(C5CC5)o4)cc3CO1)CC2 (racemic) [Example 111, rac-N^6-(5-Cyclopropyl-[1,3,4]oxadiazol-2-yl)-N^2-(7-methoxy-indan-1-yl)-4H-benzo[d][1,3]oxazine-2,6-diamine] | 204 | 1.65
Brc1ccc2c(c1)COC(N[C@@H]1CCc3ccccc31)=N2 [Example 32, (6-Bromo-4H-benzo[d][1,3]oxazin-2-yl)-(R)-indan-1-yl-amine] | 123 | 25.2
COc1cccc2c1C(NC1=Nc3ccc(Nc4nnc(C)o4)cc3CO1)CC2 (stereo not shown) [Example 101, N^2-(7-Methoxy-indan-1-yl)-N^6-(5-methyl-[1,3,4]oxadiazol-2-yl)-4H-benzo[d][1,3]oxazine-2,6-diamine] | 162 | 2.41
Cc1nnc(Nc2ccc3c(c2)COC(N[C@@H]2CCc4ccccc42)=N3)o1 [Example 118, N^2—(R)-Indan-1-yl-N^6-(5-methyl-[1,3,4]oxadiazol-2-yl)-4H-benzo[d][1,3]oxazine-2,6-diamine] | 137 | 1.4
FC(F)(F)c1nnc(Nc2ccc3c(c2)COC(N[C@@H]2CCc4ccccc42)=N3)o1 [Example 138, N^2—(R)-Indan-1-yl-N^6-(5-trifluoromethyl-[1,3,4]oxadiazol-2-yl)-4H-benzo[d][1,3]oxazine-2,6-diamine] | 155 | 8.76
COc1cccc2c1C(NC1=Nc3ccc(Br)cc3CO1)CO2 (racemic) [Example 54, rac-(6-Bromo-4H-benzo[d][1,3]oxazin-2-yl)-(4-methoxy-2,3-dihydro-benzofuran-3-yl)-amine] | 132.5 | 125
COc1cccc2c1C(NC1=Nc3ccc(Nc4nnc(C(F)(F)F)o4)cc3CO1)CO2 (racemic) [Example 145, rac-N^2-(4-Methoxy-2,3-dihydro-benzofuran-3-yl)-N^6-(5-trifluoromethyl-[1,3,4]oxadiazol-2-yl)-4H-benzo[d][1,3]oxazine-2,6-diamine] | 212 | 40.2
COc1cccc2c1C(NC1=Nc3ccc(Nc4nnc(C)o4)cc3CO1)CO2 (racemic) [Example 107, rac-N^2-(4-Methoxy-2,3-dihydro-benzofuran-3-yl)-N^6-(5-methyl-[1,3,4]oxadiazol-2-yl)-4H-benzo[d][1,3]oxazine-2,6-diamine] | 191 | 10.1
C(=C\c1ccc2c(c1)COC(N[C@@H]1CCc3ccccc31)=N2)/c1ccccc1 [Example 140, (R)-Indan-1-yl-[6-((E)-styryl)-4H-benzo[d][1,3]oxazin-2-yl]-amine] | 162 | 17.6
C(=C\c1ccc2c(c1)COC(N[C@@H]1CCc3ccccc31)=N2)/c1cccnc1 [Example 143, (R)-Indan-1-yl-[6-((E)-2-pyridin-3-yl-vinyl)-4H-benzo[d][1,3]oxazin-2-yl]-amine] | 132 | 7.62
O=C(CN1CCOCC1)Nc1ccc2c(c1)COC(NC1COc3cc(F)ccc31)=N2 (racemic) [Example 45, rac-N-[2-(6-Fluoro-2,3-dihydro-benzofuran-3-ylamino)-4H-benzo[d][1,3]oxazin-6-yl]-2-morpholin-4-yl-acetamide] |  | 40.7
COc1cccc2c1C(NC1=Nc3ccc(NC(=O)CN4CCN(C(C)C)CC4)cc3CO1)CO2 (racemic) [Example 12, rac-2-(4-Isopropyl-piperazin-1-yl)-N-[2-(4-methoxy-2,3-dihydro-benzofuran-3-ylamino)-4H-benzo[d][1,3]oxazin-6-yl]-acetamide] |  | 9.28
N=C(NO)c1ccc2c(c1)COC(N[C@@H]1CCc3ccccc31)=N2 [Example 130, N-Hydroxy-2-((R)-indan-1-ylamino)-4H-benzo[d][1,3]oxazine-6-carboxamidine] | 206 | 11.6
COc1cccc2c1C(NC1=Nc3ccc(Br)cc3CO1)CC2 (racemic) [Example 74, rac-(6-Bromo-4H-benzo[d][1,3]oxazin-2-yl)-(7-methoxy-indan-1-yl)-amine] | 151 | 13.8
COc1cccc2c1C(NC1=Nc3ccc(Nc4nnc(C(F)(F)F)o4)cc3CO1)CC2 (racemic) [Example 144, rac-N^2-(7-Methoxy-indan-1-yl)-N^6-(5-trifluoromethyl-[1,3,4]oxadiazol-2-yl)-4H-benzo[d][1,3]oxazine-2,6-diamine] | 173 | 8.44
NCc1ccc2c(c1)COC(N[C@@H]1CCc3ccccc31)=N2 [Example 129, (6-Aminomethyl-4H-benzo[d][1,3]oxazin-2-yl)-(R)-indan-1-yl-amine] |  | 13.3
COc1cccc2c1C(NC1=Nc3ccc(NS(=O)(=O)c4ccccc4)cc3CO1)CC2 (racemic) [Example 104, rac-N-[2-(7-Methoxy-indan-1-ylamino)-4H-benzo[d][1,3]oxazin-6-yl]-benzenesulfonamide] |  | 8.68
COc1cccc2c1C(NC1=Nc3ccc(Nc4cccc(C(F)(F)F)n4)cc3CO1)CO2 (racemic) [Example 59, rac-N^2-(4-Methoxy-2,3-dihydro-benzofuran-3-yl)-N^6-(6-trifluoromethyl-pyridin-2-yl)-4H-benzo[d][1,3]oxazine-2,6-diamine] |  | 7.82
